The record followed here is publication PMC11477289, “Low-Basicity 5-HT6 Receptor Ligands from the Group of Cyclic Arylguanidine Derivatives and Their Antiproliferative Activity Evaluation” (International Journal of Molecular Sciences, 2024).

This assay deals with T1, human 5-HT6 (Homo sapiens, UniProt P50406).
T1 construct: expressed in transfected cells
T1 sequence (P50406 whole entry): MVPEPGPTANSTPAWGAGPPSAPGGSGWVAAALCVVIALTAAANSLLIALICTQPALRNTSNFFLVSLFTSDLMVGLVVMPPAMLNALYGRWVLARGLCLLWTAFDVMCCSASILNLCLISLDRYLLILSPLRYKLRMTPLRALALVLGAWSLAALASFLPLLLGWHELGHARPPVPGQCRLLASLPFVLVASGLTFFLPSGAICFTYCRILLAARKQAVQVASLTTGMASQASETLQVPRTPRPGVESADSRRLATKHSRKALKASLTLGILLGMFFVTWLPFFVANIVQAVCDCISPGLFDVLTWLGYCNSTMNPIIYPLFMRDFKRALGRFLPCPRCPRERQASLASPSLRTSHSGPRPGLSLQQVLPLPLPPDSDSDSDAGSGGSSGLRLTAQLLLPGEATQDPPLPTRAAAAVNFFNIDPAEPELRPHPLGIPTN
Put plainly: [3H]-LSD radioligand binding assay, 5-HT6R. The following applies: HEK293 expressing human 5-HT6R, read-out: 5-HT6 Ki. The protocol: Next, the ligands’ affinity for the 5-HT6 receptors was evaluated in the [^3H]-LSD radioligand binding assay. Experiments were performed in a stable HEK293 cell line expressing the human 5-HT6R.
The pellets were stored at −80 °C.
`Nc1nc2ccccc2n1S(=O)(=O)c1ccccc1` [PR 1, 1-(benzenesulfonyl)-1H-1,3-benzodiazol-2-amine]: the Ki is 2.16 ± 0.539 µM. Then `N#Cc1cccc(S(=O)(=O)n2c(N)nc3ccccc32)c1` [PR 2, 3-[(2-amino-1H-1,3-benzodiazol-1-yl)sulfonyl]benzonitrile], with 49.2 ± 1.23 µM.

With `Nc1nc2ccccc2n1S(=O)(=O)c1cccc2ccccc12` [PR 3, 1-(naphthalene-1-sulfonyl)-1H-1,3-benzodiazol-2-amine], the Ki amounted to 0.148 ± 0.037 µM.

As to `Nc1nc2ccccc2n1S(=O)(=O)c1ccc2ccccc2c1` [PR 4, 1-(naphthalene-2-sulfonyl)-1H-1,3-benzodiazol-2-amine], the Ki was 0.33 ± 0.083 µM. Then `Nc1nc2ccccc2n1S(=O)(=O)c1ccc2c(c1)CC(=O)N2` [PR 5, 5-[(2-amino-1H-1,3-benzodiazol-1-yl)sulfonyl]-2,3-dihydro-1H-indol-2-one], with 14.8 ± 3.69 µM; and `Nc1nc2cc(Cl)ccc2n1S(=O)(=O)c1cccc2ccccc12` [PR 6, 5-chloro-1-(naphthalene-1-sulfonyl)-1H-1,3-benzodiazol-2-amine], with 0.704 ± 0.176 µM; and `Cc1c(S(=O)(=O)n2c(N)nc3ccccc32)sc2ccc(F)cc12` [PR 7, 1-[(5-fluoro-3-methyl-1-benzothiophen-2-yl)sulfonyl]-1H-1,3-benzodiazol-2-amine], with 2.95 ± 0.737 µM. Then `O=S(=O)(Nc1nc2ccccc2[nH]1)c1ccccc1` [PR 10, N -(1H-1,3-benzodiazol-2-yl)benzenesulfonamide], with 1.72 ± 0.429 µM; and `CN(c1nc2ccccc2n1C)S(=O)(=O)c1ccc2ccccc2c1` [PR 12, N -methyl-N-(1-methyl-1H-1,3-benzodiazol-2-yl)naphthalene-2-sulfonamide], with 41.9 ± 10.5 µM; and `O=S(=O)(NC1=NCc2ccccc2N1)c1ccccc1` [PR 13, N-(3,4-dihydroquinazolin-2-yl)benzenesulfonamide], with 2.61 ± 0.651 µM. Then `O=S(=O)(NC1=Nc2ccccc2CN1)c1ccc(F)c(F)c1` [PR 15, N -(3,4-dihydroquinazolin-2-yl)-3,4-difluorobenzene-1-sulfonamide], with 5.27 ± 1.33 µM; and `O=S(=O)(NC1=Nc2ccccc2CN1)c1ccc(C(F)(F)F)cc1` [PR 16, N -(3,4-dihydroquinazolin-2-yl)-4-(trifluoromethyl)benzene-1-sulfonamide], with 5.1 ± 1.27 µM; and `O=S(=O)(NC1=Nc2ccccc2CN1)c1cccc(Cl)c1Cl` [PR 20, 2,3-dichloro-N-(3,4-dihydroquinazolin-2-yl)benzene-1-sulfonamide], with 0.293 ± 0.073 µM. Turning to `O=S(=O)(NC1=Nc2ccccc2CN1)c1ccc(-c2ccccc2)cc1` [PR 26, N -(3,4-dihydroquinazolin-2-yl)-[1,1′-biphenyl]-4-sulfonamide], the Ki was 4.31 ± 1.08 µM.

`O=S(=O)(NC1=Nc2ccc(Cl)cc2CN1)c1ccccc1` [PR 27, N -(6-chloro-3,4-dihydroquinazolin-2-yl)benzenesulfonamide]: the Ki stood at 1.69 ± 0.422 µM. Then `CC1NC(NS(=O)(=O)c2ccccc2)=Nc2ccccc21` (centres unmarked) [PR 28, N -(4-methyl-3,4-dihydroquinazolin-2-yl)benzenesulfonamide], with 4.03 ± 1.01 µM; and `O=S(=O)(NC1=NCc2ccccc2N1)c1ccc2ccccc2c1` [PR 29, N -(3,4-dihydroquinazolin-2-yl)naphthalene-2-sulfonamide], with 3.63 ± 0.909 µM; and `O=S(=O)(NC1=NCc2cc(Cl)ccc2N1)c1ccc2ccccc2c1` [PR 32, N -(6-chloro-3,4-dihydroquinazolin-2-yl)naphthalene-2-sulfonamide], with 0.948 ± 0.212 µM. Then `CC1NC(NS(=O)(=O)c2ccc3ccccc3c2)=Nc2ccccc21` (centres unmarked) [PR 34, N -(4-methyl-3,4-dihydroquinazolin-2-yl)naphthalene-2-sulfonamide], with 0.702 ± 0.152 µM; and `CC1NC(NS(=O)(=O)c2ccc3ccccc3c2)=Nc2ccc(Cl)cc21` (centres unmarked) [PR 35, N -(6-chloro-4-methyl-3,4-dihydroquinazolin-2-yl)naphthalene-2-sulfonamide], with 2.38 ± 0.593 µM.
